Laboratory results as given in PubChem BioAssay (NCI).
Values joined by “and” are separate entries in the source; they are usually repeats but may differ in a detail not shown here. Equal entries are not always repeated.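 Results reflect a 48-hour exposure of cells in 96-well plates to compound at five concentrations. At the GI50, growth is halved. TGI denotes the concentration required for complete inhibition of growth.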

Key:
Assay in all cases: NCI anticancer screen, dose series, 48 h
[1] = system: A498 renal
[2] = system: HCT-15 colon
[3] = system: NCI-H23 lung
[4] = system: MCF7 breast
[5] = system: U251 CNS
[6] = system: NCI-H522 lung
[7] = system: SK-MEL-5 melanoma
[8] = system: SW-620 colon
[9] = system: EKVX NSCLC
[10] = system: TK-10 renal

Row | SMILES | GI50 [1] [µM] | TGI [1] [µM] | GI50 [2] [µM] | TGI [2] [µM] | GI50 [3] [µM] | TGI [3] | GI50 [4] [µM] | TGI [4] | GI50 [5] [µM] | TGI [5] | GI50 [6] [µM] | TGI [6] | GI50 [7] | TGI [7] | GI50 [8] | TGI [8] | GI50 [9] [µM] | TGI [9] | GI50 [10] [µM] | TGI [10]
1 | Cc1ccc(NC(=O)c2ccc(NC3=C(Cl)C(=O)N(Cc4ccccc4)C3=O)cc2)cc1Cl | 0.854 | 26.9 | 2.25 | 13.2 | 11.3 | 29.8 µM | 3.3 | 15.4 µM | 3.97 | 17.8 µM | 3.73 | 20.5 µM | 12 µM | 24.3 µM | 1.99 µM | 11.8 µM | 26.4 | > 100 µM | 17.4 | 40.5 µM
2 | COC(=O)C1=Nc2ccc(F)cc2/C1=C/c1sc(=S)[nH]c1O | 0.202 | 0.942 | 0.0663 | > 100 | 0.408 | > 100 µM | 0.26 | 15 µM | 0.0838 | 14.2 µM | 0.0363 | 1.09 µM | 0.131 µM | 0.745 µM | 0.0499 µM | > 100 µM | 0.987 | > 100 µM | 0.848 | 19.3 µM
3 | CC/C(=C(/c1ccc(/C=C/C(=O)O)cc1)c1ccc2[nH]ncc2c1)c1ccc(F)cc1Cl | 4.75 | 17.9 | 7.45 | 22 | 15.4 | 37.8 µM |  | 15.4 µM | 9.44 | 23.5 µM | 9.42 | 28.2 µM | 8.35 µM | 21.4 µM | 12 µM | 28.5 µM | 13.2 | 32.3 µM | 15.9 | 33.4 µM
4 | Cc1cc2c(cc1C)[n+](=O)c(C(=O)/C=C/c1ccccc1[N+](=O)[O-])c(C)n2[O-] |  | 91.8 |  | > 100 |  | 63 µM |  | > 46.4 µM |  | 64.8 µM |  | 57.6 µM |  | > 100 µM |  | > 100 µM |  | 99.1 µM |  | 69.7 µM
5 | CCC1=C(c2ccc(OC)cc2)CC[C@]2(CCNC2=O)[C@@H]1C |  | > 100 |  | > 88.8 |  | > 100 µM |  | 46.7 µM |  | 86.4 µM |  | 56.3 µM |  | 31.1 µM |  | > 100 µM |  | > 86.7 µM |  | > 100 µM
6 | N=C(N)c1ccc(OCCCCCOc2ccc(C(=N)N)cc2)cc1 | 7.24 | > 50 | 7.57 | > 100 | 3.34 | > 50 µM and 25.4 µM and 29 µM | 2.59 | 14.4 µM and 25.9 µM and 28.5 µM | 2.79 | 13.2 µM and 22.5 µM and 34.5 µM | 1.66 | 9.58 µM and 21.3 µM | 1.02 µM and 2.29 µM and 10.1 µM | 3.33 µM and 11.7 µM and 29.5 µM | 5.17 µM and 8.95 µM and 18.1 µM | > 50 µM and 57.7 µM and 86.9 µM | 8.89 | > 50 µM and 45.5 µM and 72.6 µM | 8.49 | 18.9 µM and 27.6 µM and 48.3 µM
7 | O=C(Nc1ccc(Cl)c(C(F)(F)F)c1)C(=O)c1c(O)c2ccccc2oc1=O |  | > 100 |  | > 100 |  | > 100 µM |  | > 100 µM |  | > 100 µM |  | > 100 µM |  | > 100 µM |  | > 100 µM |  | > 100 µM |  | > 100 µM
8 | Nc1ccn([C@@H]2S[C@H](CO)[C@@H](O)[C@@H]2F)c(=O)n1 | 0.0709 |  | 0.413 | > 100 | 0.0586 | > 49 µM | 0.0545 | > 100 µM | 0.367 | > 100 µM | 8.83 | > 100 µM | 0.178 µM | > 100 µM | 0.252 µM | > 100 µM | 0.648 | > 100 µM | > 100 | > 100 µM
9 | CCN(CC)C(=O)CCCCCn1c2ccccc2c2c3c(c4c5ccccc5[nH]c4c21)C(=O)N(O)C3=O | 2.86 | 20.3 | 4.07 | > 100 | 3.33 | 47.3 µM | 2.94 | > 100 µM | 1.96 | 3.78 µM | 1.41 | 3.13 µM | 2 µM | 5.02 µM | 4.29 µM | > 100 µM | 10.9 | 58.4 µM | 3.64 | 64 µM
10 | COc1cc2c(cc1OC)C(SC)C(=O)N(Cc1cccc(OC)c1OC)CC2 (stereo not drawn) |  | > 54.9 |  | > 74 |  | 18.2 µM |  | > 42.6 µM |  | > 69.3 µM |  | 3.07 µM |  | 9.52 µM |  | > 100 µM |  | > 100 µM |  | > 100 µM
11 | Nc1n[nH]c2ccc([C@@H]3Nc4c(F)cc5[nH]ncc5c4[C@H]4C5CCC(C5)[C@@H]34)cc12 (stereo partly drawn) | 0.0413 | 0.337 | 0.222 | > 41.5 | 0.46 | 21.8 µM | 0.0702 | > 43.4 µM | 0.376 | 17.3 µM | 0.102 | 2.17 µM | 0.6 µM | 4.94 µM | 0.318 µM | > 49.1 µM | 0.632 | > 71.5 µM | 5.6 | > 79.4 µM
12 | Cn1c(CC(O)c2nc3ccccc3n2C)nc2ccccc21 (stereo not drawn) |  | > 51.1 |  | > 49.5 |  | > 48.6 µM |  | > 47.2 µM |  | > 48.8 µM |  | > 8.21 µM |  | > 42.8 µM |  | > 47 µM |  | > 100 µM |  | > 36.4 µM
13 | Cc1ccc(O)cc1Nc1ccnc2cc(-c3ccccn3)ccc12 | 1.83 | 5.04 | 2.44 | 6.79 | 3.59 | 10.9 µM | 2.71 | 6.07 µM | 3.29 | 6.65 µM | 0.931 | 4.6 µM | 3.6 µM | 7.14 µM | 4.02 µM | 7.65 µM | 3.61 | 17.3 µM | 1.36 | 4.23 µM
14 | CCc1c(C#N)c(SC(C(N)=O)c2ccccc2)nc(N2CCC(N)CC2)c1C#N (stereo not drawn) | 15.4 | 30.4 | 53.5 | > 100 | 16.4 | 31 µM | 13 | 26.8 µM | 15.7 | 30.5 µM | 12.9 | 27.1 µM | 15.1 µM | 28.3 µM | 15.5 µM | 29.6 µM | 15.5 | 36.9 µM | 15.3 | 29.9 µM
